# Experimental data as given in ChEMBL document CHEMBL3885881, “DrugMatrix”.
# Species on record: Rattus norvegicus
# Experiment: DrugMatrix - Regimen: Daily Repeat
# Assay type: toxicity, organism-based, Sprague-Dawley
# Set-up: regimen Daily Repeat, gender Male, age 6-8 weeks
# Details: in vivo, po, 1500 mg/kg, route oral GAVAGE, dose level High, vehicle .5 % CMC; for ABSOLUTE BASOPHIL / ABSOLUTE EOSINOPHIL / ABSOLUTE LYMPHOCYTE / ABSOLUTE MONOCYTE / ABSOLUTE SEGMENTED NEUTROPHIL / BASOPHIL / EOSINOPHIL / ERYTHROCYTE COUNT / HEMATOCRIT / HEMOGLOBIN / LEUKOCYTE COUNT / LYMPHOCYTE / MEAN CORPUSCULAR HEMOGLOBIN / MEAN CORPUSCULAR HEMOGLOBIN CONCENTRATION / MEAN CORPUSCULAR VOLUME / MONOCYTE / NEUTROPHIL / NUCLEATED RED BLOOD CELLS / PLATELET COUNT: tissue Blood; for ALANINE AMINOTRANSFERASE / ALBUMIN / ALKALINE PHOSPHATASE / ASPARTATE AMINOTRANSFERASE / BLOOD UREA NITROGEN / CARBON DIOXIDE / CHLORIDE / CHOLESTEROL / CREATINE PHOSPHOKINASE / CREATININE / GLUCOSE / LACTATE DEHYDROGENASE / LIPASE / PHOSPHORUS / POTASSIUM / SODIUM / TOTAL BILIRUBIN / TOTAL PROTEIN / URIC ACID: tissue Plasma
smiles,measurement,setting,value
O=C(N[C@H](CO)[C@H](O)c1ccc([N+](=O)[O-])cc1)C(Cl)Cl [CHLORAMPHENICOL],ABSOLUTE BASOPHIL,"72 h, time 3 day",0 CELLS/uL
same,ABSOLUTE EOSINOPHIL,"72 h, time 3 day",0 CELLS/uL
same,ABSOLUTE LYMPHOCYTE,"72 h, time 3 day",14694 CELLS/uL
same,ABSOLUTE MONOCYTE,"72 h, time 3 day",312.67 CELLS/uL
same,ABSOLUTE SEGMENTED NEUTROPHIL,"72 h, time 3 day",793.33 CELLS/uL
same,BASOPHIL,"72 h, time 3 day",0%
same,EOSINOPHIL,"72 h, time 3 day",0%
same,ERYTHROCYTE COUNT,"72 h, time 3 day",5.41 x10E6/uL
same,HEMATOCRIT,"72 h, time 3 day",34.37%
same,HEMOGLOBIN,"72 h, time 3 day",13.67 G/DL
same,LEUKOCYTE COUNT,"72 h, time 3 day",15.8 x10E3/uL
same,LYMPHOCYTE,"72 h, time 3 day",93%
same,MEAN CORPUSCULAR HEMOGLOBIN,"72 h, time 3 day",25.33 pg
same,MEAN CORPUSCULAR HEMOGLOBIN CONCENTRATION,"72 h, time 3 day",39.83 G/DL
same,MEAN CORPUSCULAR VOLUME,"72 h, time 3 day",63.63 fL
same,MONOCYTE,"72 h, time 3 day",2%
same,NEUTROPHIL,"72 h, time 3 day",5%
same,NUCLEATED RED BLOOD CELLS,"72 h, time 3 day",0 /100WBC
same,PLATELET COUNT,"72 h, time 3 day",1264 x10E3/uL
same,ALANINE AMINOTRANSFERASE,"72 h, time 3 day",78 u/L
same,ALBUMIN,"72 h, time 3 day",4.33 G/DL
same,ALKALINE PHOSPHATASE,"72 h, time 3 day",347 u/L
same,ASPARTATE AMINOTRANSFERASE,"72 h, time 3 day",90.33 u/L
same,BLOOD UREA NITROGEN,"72 h, time 3 day",15.67 mg/dL
same,CARBON DIOXIDE,"72 h, time 3 day",37.67 mmol/L
same,CHLORIDE,"72 h, time 3 day",101.33 MEQ/L
same,CHOLESTEROL,"72 h, time 3 day",63 mg/dL
same,CREATINE PHOSPHOKINASE,"72 h, time 3 day",530 u/L
same,CREATININE,"72 h, time 3 day",0.15 mg/dL
same,GLUCOSE,"72 h, time 3 day",150 mg/dL
same,LACTATE DEHYDROGENASE,"72 h, time 3 day",92.67 u/L
same,LIPASE,"72 h, time 3 day",9.33 u/L
same,PHOSPHORUS,"72 h, time 3 day",10.53 mg/dL
same,POTASSIUM,"72 h, time 3 day",6.53 MEQ/L
same,SODIUM,"72 h, time 3 day",143.67 MEQ/L
same,TOTAL BILIRUBIN,"72 h, time 3 day",0.13 mg/dL
same,TOTAL PROTEIN,"72 h, time 3 day",5.6 G/DL
same,URIC ACID,"72 h, time 3 day",1.4 mg/dL
same,ABSOLUTE BASOPHIL,"120 h, time 5 day",0 CELLS/uL
same,ABSOLUTE EOSINOPHIL,"120 h, time 5 day",0 CELLS/uL
same,ABSOLUTE LYMPHOCYTE,"120 h, time 5 day",13927 CELLS/uL
same,ABSOLUTE MONOCYTE,"120 h, time 5 day",280 CELLS/uL
same,ABSOLUTE SEGMENTED NEUTROPHIL,"120 h, time 5 day",1126.33 CELLS/uL
same,BASOPHIL,"120 h, time 5 day",0%
same,EOSINOPHIL,"120 h, time 5 day",0%
same,ERYTHROCYTE COUNT,"120 h, time 5 day",5.7 x10E6/uL
same,HEMATOCRIT,"120 h, time 5 day",35.27%
same,HEMOGLOBIN,"120 h, time 5 day",14.27 G/DL
same,LEUKOCYTE COUNT,"120 h, time 5 day",15.33 x10E3/uL
same,LYMPHOCYTE,"120 h, time 5 day",90.67%
same,MEAN CORPUSCULAR HEMOGLOBIN,"120 h, time 5 day",25.07 pg
same,MEAN CORPUSCULAR HEMOGLOBIN CONCENTRATION,"120 h, time 5 day",40.5 G/DL
same,MEAN CORPUSCULAR VOLUME,"120 h, time 5 day",61.9 fL
same,MONOCYTE,"120 h, time 5 day",2%
same,NEUTROPHIL,"120 h, time 5 day",7.33%
same,NUCLEATED RED BLOOD CELLS,"120 h, time 5 day",0.33 /100WBC
same,PLATELET COUNT,"120 h, time 5 day",1090 x10E3/uL
same,ALANINE AMINOTRANSFERASE,"120 h, time 5 day",63 u/L
same,ALBUMIN,"120 h, time 5 day",4.13 G/DL
same,ALKALINE PHOSPHATASE,"120 h, time 5 day",266.33 u/L
same,ASPARTATE AMINOTRANSFERASE,"120 h, time 5 day",100.33 u/L
same,BLOOD UREA NITROGEN,"120 h, time 5 day",22.33 mg/dL
same,CARBON DIOXIDE,"120 h, time 5 day",35 mmol/L
same,CHLORIDE,"120 h, time 5 day",103 MEQ/L
same,CHOLESTEROL,"120 h, time 5 day",56 mg/dL
same,CREATINE PHOSPHOKINASE,"120 h, time 5 day",359.67 u/L
same,CREATININE,"120 h, time 5 day",0.2 mg/dL
same,GLUCOSE,"120 h, time 5 day",144 mg/dL
same,LACTATE DEHYDROGENASE,"120 h, time 5 day",180 u/L
same,LIPASE,"120 h, time 5 day",8.67 u/L
same,PHOSPHORUS,"120 h, time 5 day",9.33 mg/dL
same,POTASSIUM,"120 h, time 5 day",9.76 MEQ/L
same,SODIUM,"120 h, time 5 day",143.67 MEQ/L
same,TOTAL BILIRUBIN,"120 h, time 5 day",0.17 mg/dL
same,TOTAL PROTEIN,"120 h, time 5 day",5.23 G/DL
same,URIC ACID,"120 h, time 5 day",1.3 mg/dL
